The source of these data is US10620215B2, “Real-time imaging sensor for measuring cellular thiol level” (CELL2IN, INC., priority 2014, dated 2020).

For one assay, the system named is HeLa cells. The experiment in a line: Level of thiols / reduced GSH in living HeLa cells, by FreSH-tracer fluorescence intensity ratio. It is filed as cell-based. As to conditions: treatment with GSH-related enzyme inhibitor. Here is the method:
HeLa and RAW264.7 cells were cultured in DMEM (containing 10% heat-inactivated FBS (Hyclone), 100 U/ml of penicillin, 100 μg/ml of streptomycin sulfate and 2 mM glutamine and free of phenol red). HeLa (1.8×10^5 cells/dish) and RAW264.7 (2×10^5 cells/dish) were seeded in 35 mm cover glass bottom dishes (SPL Life Sciences), and then cultured under the conditions of 37° C. and 5% CO2 for the indicated time. Before observation using a fluorescence microscope, the HeLa cells were incubated with 2 mL of a medium containing 5 μM of the FreSH-tracer HeLa for 2 hours, and the RAW264.7 cells were incubated for 4 hours. Real-time images of the cells were acquired using a Nikon A1 laser scanning confocal microscope. The imaging test was 2 performed while the cells were incubated under the conditions of 37° C. and 5% CO2 in a chamber mounted in a Nikon ECLIPSE Ti inverted microscope equipped with CFI Plan apochromat 60× and 1.40 numerical aperture (NA) objective lenses. The FreSH-tracer was excited with laser beams at 403 nm and 488 nm, and the fluorescence of the tracer was detected through filters with 500-550 nm and 570-620 nm band intervals. Using NIS-Elements AR software, the experimental data were analyzed and the ratio of fluorescence was imaged. […]

The next assay deals with RAW264.7. The experiment in a line: Level of thiols in RAW264.7 macrophages after NADPH oxidase activation, by FreSH-tracer F510/F580 ratio. As to conditions: PMA treatment for 10-20 minutes; returned to basal level after 40-50 minutes. It is filed as cell-based. Here is the method: HeLa and RAW264.7 cells were cultured in DMEM (containing 10% heat-inactivated FBS (Hyclone), 100 U/ml of penicillin, 100 μg/ml of streptomycin sulfate and 2 mM glutamine and free of phenol red). HeLa (1.8×10^5 cells/dish) and RAW264.7 (2×10^5 cells/dish) were seeded in 35 mm cover glass bottom dishes (SPL Life Sciences), and then cultured under the conditions of 37° C. and 5% CO2 for the indicated time. Before observation using a fluorescence microscope, the HeLa cells were incubated with 2 mL of a medium containing 5 μM of the FreSH-tracer HeLa for 2 hours, and the RAW264.7 cells were incubated for 4 hours. Real-time images of the cells were acquired using a Nikon A1 laser scanning confocal microscope. The imaging test was 2 performed while the cells were incubated under the conditions of 37° C. and 5% CO2 in a chamber mounted in a Nikon ECLIPSE Ti inverted microscope equipped with CFI Plan apochromat 60× and 1.40 numerical aperture (NA) objective lenses. The FreSH-tracer was excited with laser beams at 403 nm and 488 nm, and the fluorescence of the tracer was detected through filters with 500-550 nm and 570-620 nm band intervals. Using NIS-Elements AR software, the experimental data were analyzed and the ratio of fluorescence was imaged.
ROS that are generated by phagocytic NADPH oxidase (Phox) activity are essential defense substances that kill invasive microorganisms. […]

A short description of assay [1]: Chemical equilibrium constant (Kd) of the tracer with β-mercaptoethanol, from fluorescence emission after equilibration. It counts as binding. Here is the method: (§1) A buffer (10 mM phosphate, 150 mM NaCl, pH 7.4, H2O:DMSO=98:2) containing a mixture of a thiol compound (0-200 mM) and a FreSH-tracer (10 μM) was prepared, and the time-dependent UV-Vis absorption spectrum and fluorescence emission spectrum of the buffer were measured with S-3100 spectrophotometer and Hitachi F-7000 spectrophotometer. For preparation of buffers for use in in vitro experiments at pHs of pH 4, 5, 9 and 10, acetate and CHES (2-(cyclohexylamino)ethanesulfonate) were used instead of phosphate.
(§2) After a chemical equilibrium between the thiol compound (0-200 mM) and the FreSH-tracer was formed by an in vitro reaction, the emission spectrum of fluorescence emitted upon excitation with light at a wavelength of 430 nm was measured. The relationship between the fluorescence intensity at the maximum emission wavelength (580 nm) and the concentration of the thiol compound was analyzed by non-linear regression to determine the chemical equilibrium constant (Kd) between the thiol compound and the FreSH-tracer.

The nature of assay [2]: Chemical equilibrium constant (Kd) and fluorescence ratio response of the tracer with glutathione (GSH) in vitro. It counts as binding. As to conditions: equilibration with GSH. Here is the method:
as §1, §2

As to `CCCCS(=N)(=O)CCC(N)C(=O)O` (centres unmarked) [BSO, buthionine sulphoximine], the “fluorescence intensity ratio of the sensor (level of reduced GSH) in HeLa cells” value in the assay on HeLa cells is given as “reduced”. Consider `CCCCCCCCCCCCCC(=O)O[C@@H]1[C@@H](C)[C@@]2(O)[C@@H](C=C(CO)C[C@]3(O)C(=O)C(C)=C[C@@H]23)[C@@H]2C(C)(C)[C@]12OC(C)=O` [PMA, phorbol 12-myristate 13-acetate], for which the “level of thiols in the cells” value with RAW264.7 is listed as “reduced”. Regarding `CN(C)C(=O)C(C#N)=Cc1cc2cc3c4c(c2oc1=O)CCCN4CCC3` [formula 2], the Kd (usually the concentration at which binding is half-saturated) in assay [1] was determined as 12 ± 1 mM.

`CCOC(=O)CNC(=O)C(C#N)=Cc1cc2cc3c4c(c2oc1=O)CCCN4CCC3` [formula 3] had a Kd in assay [1] of 14 ± 1 mM. `CC(=O)OCOC(=O)C1CCN(C(=O)C(C#N)=Cc2cc3cc4c5c(c3oc2=O)CCCN5CCC4)CC1` [formula 4]: the Kd in assay [2] came out at 2.8 ± 0.4 mM.

Compound `N#CC(=Cc1cc2cc3c4c(c2oc1=O)CCCN4CCC3)C(=O)N1CCC(C(=O)NCC[P+](c2ccccc2)(c2ccccc2)c2ccccc2)CC1` [formula 5] showed an equilibrium dissociation constant (Kd) in assay [1] of 2.2 ± 0.1 mM.

Take `CC(=O)OCOC(=O)CC[C@H](NC(=O)C1CCN(C(=O)C(C#N)=Cc2cc3cc4c5c(c3oc2=O)CCCN5CCC4)CC1)C(=O)OCOC(C)=O` [formula 7]: in assay [2], the dissociation constant Kd worked out at 3.7 ± 0.2 mM. In assay [1], `CCN(CC)c1ccc2cc(C=C(C#N)C(=O)N(C)C)c(=O)oc2c1` [formula 8] returned a Kd of 2.2 ± 0.1 mM.
